Values quoted from earlier work, collected in patent publication US11173064B2, “High-precision drug delivery by dual-domain ocular device” (LYNTHERA CORPORATION, priority 2016, dated 2021).
Structures can show the parent of a compound that is named as a salt.

Settings: octanol/water

| log P | Compound |
| --- | --- |
| ~3.2 | CCNC(=O)CCC/C=C\C[C@@H]1[C@@H](/C=C/[C@@H](O)CCc2ccccc2)[C@H](O)C[C@@H]1O [bimatoprost] |
| ~1.4 | CC(C)(C)NC[C@H](O)COc1nsnc1N1CCOCC1 [timolol maleate] |
